Here are results for one compound from PMC10580381 (ACS Pharmacology & Translational Science, 2023).

Molecules are shown by their SMILES. “And” between values parts separate entries of the source, which are not always exact repeats. Equal entries are not always repeated. A value given as a limit tells only on which side of the number the result lay.

One experiment has as its target T1, recombinant human HDAC8 (Homo sapiens, UniProt Q9BY41).
T1 sequence (Q9BY41 1-377): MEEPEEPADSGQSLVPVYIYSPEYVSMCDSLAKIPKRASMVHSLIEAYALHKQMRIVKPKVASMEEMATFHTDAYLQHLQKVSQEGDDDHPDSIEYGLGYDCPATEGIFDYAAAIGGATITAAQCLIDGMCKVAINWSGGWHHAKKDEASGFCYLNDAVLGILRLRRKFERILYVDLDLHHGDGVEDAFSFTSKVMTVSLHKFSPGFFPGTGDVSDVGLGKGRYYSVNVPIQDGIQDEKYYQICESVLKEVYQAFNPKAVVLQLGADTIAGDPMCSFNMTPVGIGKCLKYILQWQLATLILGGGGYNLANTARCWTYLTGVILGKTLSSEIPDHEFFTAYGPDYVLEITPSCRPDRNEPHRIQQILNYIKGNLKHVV
The experiment is described as follows: biochemical.

Experiment [1] relates to H1975 cells. As to the kind of experiment: cells. The conditions noted are these: Homo sapiens, NCI-H1975, read-out: cell viability (%).
The target of the next experiment is recombinant human HDAC3 (Homo sapiens, UniProt O15379). As to the kind of experiment: biochemical.
In the next experiment the target is recombinant human HDAC1 (Homo sapiens, UniProt Q13547). The experiment is described as follows: biochemical.
The subject of the next experiment is A549 cells. The experiment is described as follows: SRB cell proliferation assay, A549. To be noted: Homo sapiens, A549, read-out: cell viability (%).
A further experiment has as its system NSCLC cell lines. The experiment is described as follows: cells. Type of experiment: cell-based. The conditions noted are these: Homo sapiens, read-out: effect on cancer cell viability.
Another experiment addresses T2, recombinant human HDAC6 (Homo sapiens, UniProt Q9UBN7).
T2 sequence (Q9UBN7 1-1215): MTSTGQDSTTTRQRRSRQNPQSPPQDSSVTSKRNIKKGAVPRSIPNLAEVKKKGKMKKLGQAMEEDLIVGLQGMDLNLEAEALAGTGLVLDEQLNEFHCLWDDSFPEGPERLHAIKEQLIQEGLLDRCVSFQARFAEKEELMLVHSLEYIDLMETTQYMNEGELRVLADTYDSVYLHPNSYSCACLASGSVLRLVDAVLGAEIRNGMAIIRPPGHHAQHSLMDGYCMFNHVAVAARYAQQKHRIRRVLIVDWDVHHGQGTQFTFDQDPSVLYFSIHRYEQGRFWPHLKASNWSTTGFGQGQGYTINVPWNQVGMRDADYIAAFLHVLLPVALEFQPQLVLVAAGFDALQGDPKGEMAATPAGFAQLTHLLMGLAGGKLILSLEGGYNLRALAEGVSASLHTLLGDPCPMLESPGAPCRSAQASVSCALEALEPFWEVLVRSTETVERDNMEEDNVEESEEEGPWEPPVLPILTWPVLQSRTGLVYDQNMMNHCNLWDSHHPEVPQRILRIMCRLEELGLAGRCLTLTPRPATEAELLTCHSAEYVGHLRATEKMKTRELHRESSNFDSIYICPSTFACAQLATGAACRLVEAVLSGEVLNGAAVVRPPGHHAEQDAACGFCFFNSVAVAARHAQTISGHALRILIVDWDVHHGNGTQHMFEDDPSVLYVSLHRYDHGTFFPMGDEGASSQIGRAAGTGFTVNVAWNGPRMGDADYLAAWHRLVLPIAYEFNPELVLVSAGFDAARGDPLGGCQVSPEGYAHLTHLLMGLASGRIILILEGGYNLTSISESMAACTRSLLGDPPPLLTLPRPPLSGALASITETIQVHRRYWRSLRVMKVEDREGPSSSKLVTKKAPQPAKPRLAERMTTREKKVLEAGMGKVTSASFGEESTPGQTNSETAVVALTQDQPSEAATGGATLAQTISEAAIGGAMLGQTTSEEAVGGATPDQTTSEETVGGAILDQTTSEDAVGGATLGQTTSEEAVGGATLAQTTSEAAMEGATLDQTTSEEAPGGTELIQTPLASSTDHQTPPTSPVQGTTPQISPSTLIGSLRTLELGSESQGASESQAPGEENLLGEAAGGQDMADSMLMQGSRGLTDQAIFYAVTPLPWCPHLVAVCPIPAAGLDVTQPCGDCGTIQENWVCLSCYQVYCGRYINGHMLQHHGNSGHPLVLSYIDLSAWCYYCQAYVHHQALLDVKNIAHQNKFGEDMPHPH
As to the kind of experiment: biochemical. To be noted: IC50 HDAC6, recombinant HDAC6, mean ± SD, three independent experiments.

The subject of experiment [2] is H1975 cells. As to the kind of experiment: Transwell invasion assay. Type of experiment: cell-based, human. To be noted: flunarizine 5 or 10 μM, 48 h.
Another experiment relates to p27^Kip1 (CDKN1B). The experiment is described as follows: Real-time PCR of p27^Kip1 expression in H1975. Type of experiment: cell-based, human. The conditions noted are these: H1975, 24 h, flunarizine 2.5, 5, or 10 μM or SAHA 0.25, 0.5, or 1 μM; all concentrations tested. As to the method:
Reverse transcription was performed using 1 μg of total RNA sample with the PrimeScript First Strand cDNA Synthesis Kit (TaKaRa Biomedical Technology) at 37 °C for 10 min. The cDNA was then amplified by real-time PCR to determine the relative expression of p27^Kip1 and BIM using the KAPA SYBR FAST qPCR kit (KapaBiosystems, Wilmington, Massachusetts) with a LightCycler 480 Instrument I instrument (Roche Applied Science, Indianapolis, Indiana). The house-keeping gene GAPDH was also measured for normalization. Specific primer sequences used in the PCR reactions are p27^Kip1, forward 5′-[…]-3′ and reverse 5′-[…]-3′; Bim, forward 5′-[…]-3′ and reverse 5′-[…]-3′; and GAPDH, forward 5′-[…]-3′ and reverse 5′-[…]-3′. The PCR temperature program was set at 95 °C for 5 min, followed by 35 cycles of 95 °C for 10 s and 60 °C for 10 s. The fluorescent signal was detected at the end of the PCR elongation step of every cycle to keep track of the amount of amplified DNA. ΔCt was calculated by subtracting the Ct of GAPDH from the Ct of Bim or p27^Kip1. Fold change in gene expression was analyzed by the 2^–ΔΔCt method.

Experiment [3] relates to H1975 cells. The conditions noted are these: flunarizine alone 5 or 10 μM, 24 h (Figure 3). As to the method: Afterward, ethanol was discarded, and the fixed cells were incubated with RNase I (25 μg/mL) at 37 °C for 30 min. Then, the cells were stained with propidium iodide (50 μg/mL) at room temperature for at least 1 h and analyzed by using a flow cytometer (BD LSRFortessa; BD Biosciences). At least 10,000 events were acquired for each sample. ModFit software (Verity Software House, Topsham, Maine) was used to analyze the cell cycle profile.

Sequence of recombinant human HDAC3 (O15379 whole entry): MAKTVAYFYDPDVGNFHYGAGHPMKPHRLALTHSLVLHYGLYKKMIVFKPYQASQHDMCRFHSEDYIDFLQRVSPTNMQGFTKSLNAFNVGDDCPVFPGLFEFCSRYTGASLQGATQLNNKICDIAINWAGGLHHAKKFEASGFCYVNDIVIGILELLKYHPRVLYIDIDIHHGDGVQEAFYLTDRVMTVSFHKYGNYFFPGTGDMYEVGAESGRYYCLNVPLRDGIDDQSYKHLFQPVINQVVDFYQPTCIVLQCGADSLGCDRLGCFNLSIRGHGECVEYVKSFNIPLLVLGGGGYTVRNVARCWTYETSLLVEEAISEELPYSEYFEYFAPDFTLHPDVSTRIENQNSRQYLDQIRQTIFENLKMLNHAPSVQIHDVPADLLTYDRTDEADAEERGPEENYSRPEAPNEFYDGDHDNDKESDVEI
Sequence of recombinant human HDAC3 (Q9Y618 395-489 partner limits assumed): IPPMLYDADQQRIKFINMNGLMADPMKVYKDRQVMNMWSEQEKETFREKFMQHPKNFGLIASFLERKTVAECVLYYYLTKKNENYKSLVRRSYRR
Sequence of recombinant human HDAC1 (Q13547 whole entry): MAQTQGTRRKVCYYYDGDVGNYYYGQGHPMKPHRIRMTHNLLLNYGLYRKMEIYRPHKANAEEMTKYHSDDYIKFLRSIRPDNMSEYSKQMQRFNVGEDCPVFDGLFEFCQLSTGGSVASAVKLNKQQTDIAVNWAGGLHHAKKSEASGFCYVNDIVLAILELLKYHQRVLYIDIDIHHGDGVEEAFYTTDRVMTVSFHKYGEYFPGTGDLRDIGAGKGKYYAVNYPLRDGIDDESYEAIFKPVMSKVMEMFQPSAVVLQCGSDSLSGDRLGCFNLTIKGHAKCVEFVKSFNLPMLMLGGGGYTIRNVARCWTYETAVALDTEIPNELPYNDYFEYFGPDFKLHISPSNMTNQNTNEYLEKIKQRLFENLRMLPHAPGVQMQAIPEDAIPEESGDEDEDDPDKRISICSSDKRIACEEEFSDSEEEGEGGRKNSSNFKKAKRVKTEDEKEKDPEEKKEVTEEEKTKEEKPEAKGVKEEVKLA

As for `Fc1ccc(C(c2ccc(F)cc2)N2CCN(C/C=C/c3ccccc3)CC2)cc1` [flunarizine], the IC50 on recombinant human HDAC8 was 5.5 ± 0.45 µM; at recombinant human HDAC3, 0.305 ± 0.031 µM; at recombinant human HDAC1, 0.285 ± 0.015 µM; on recombinant human HDAC6 it was ~5.6 µM and 5.6 µM. Further, the viability at 2.5 µM in the experiment with H1975 cells [1] is 95 ± 8%; in the experiment with A549 cells it was 101 ± 5%. Also, the viability at 5 µM in the experiment on H1975 cells [1] was determined as 94 ± 6%; in the experiment with A549 cells, 95 ± 6%. Also, the figures for the viability at 10 µM with H1975 cells [1] and in the experiment with A549 cells were 86 ± 7% and 102 ± 8%, respectively. The viability at 20 µM in the experiment with NSCLC cell lines is at most 25%. For the same compound, the cancer cell invasion result in the experiment with H1975 cells [2] is “inhibition”. Also, the “p27^Kip1 expression” value in the experiment with p27^Kip1 (CDKN1B) is on record as “significantly increase”. For the same compound, the “G1 cell cycle arrest” value in the experiment with H1975 cells [3] was “induce G1 cell cycle arrest”.
